Experimental data published in US7595313B2, “Nitric oxide donating diuretic compounds, compositions and methods of use” (NicOx, S.A., priority 2005, dated 2009).

Experiments:
[1] = tested on: Male Wistar rats; experiment: Determination of the diuresis (urine volume over 6 hours after oral dosing); assay type: in vivo, rat
Summary of the method: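 Male Wistar rats (180-200 g) in metabolic cages, fasted 18 h, water withdrawn 90 min before dosing. Compounds in 0.5% Methocel given p.o. at 30 or 3 mg/kg; urine volume collected over 6 h. Mean ±SEM, n=6 or 7.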

[2] = p.o. 3 mg/kg in 0.5% Methocel, male Wistar rats, 6 hours, mean ± SEM, n=6 or 7
[3] = p.o. 3 mg/kg in 0.5% Methocel, male Wistar rats, 6 hours, mean ± SEM, n=6 or 7, 3 mg/kg

SMILES	Urine collected in 6 hours (mL) (3 mg/kg) ([1]; rat, in vivo, po)	melting point	Urine collected in 6 hours (mL) (3 mg/kg) [1, 2]	Urine collected in 6 hours (mL) (3 mg/kg) [1, 3]
NS(=O)(=O)c1cc2c(cc1Cl)NCN(CC[C@@H](CO[N+](=O)[O-])O[N+](=O)[O-])S2(=O)=O [Example 48b, 2H-1,2,4-Benzothiadiazine-7-sulfonamide, 2-[(3S)-3,4-bis(nitrooxy)butyl]-6-chloro-3,4-dihydro-, 1,1-dioxide]	4.8 ± 0.8	162 to 163 °C		
NS(=O)(=O)c1cc2c(cc1Cl)NC(CC(=O)N(CCO[N+](=O)[O-])CCO[N+](=O)[O-])NS2(=O)=O (centres unmarked) [Example 49e, 2H-1,2,4-Benzothiadiazine-3-acetamide, 7-(aminosulfonyl)-6-chloro-3,4-dihydro-N,N-bis[2-(nitrooxy)ethyl]-, 1,1-dioxide]	2.5 ± 0.5	94 to 97 °C		
NS(=O)(=O)c1cc2c(cc1Cl)NC(c1cc(CO[N+](=O)[O-])cc(CO[N+](=O)[O-])c1)NS2(=O)=O (centres unmarked) [Example 50c, 2H-1,2,4-Benzothiadiazine-7-sulfonamide, 3-[3,5-bis[(nitrooxy)methyl]phenyl]-6-chloro-3,4-dihydro-, 1,1-dioxide]	3.3 ± 0.6	121 to 124 °C		
NS(=O)(=O)c1cc2c(cc1Cl)N([N+](=O)[O-])CN(CCO[N+](=O)[O-])S2(=O)=O [Example 52, 2H-1,2,4-Benzothiadiazine-7-sulfonamide, 6-chloro-3,4-dihydro-4-nitro-2-[2-(nitrooxy)ethyl]-, 1,1-dioxide]	5.7 ± 0.8	144 °C (dec.)		
NS(=O)(=O)c1cc2c(cc1Cl)NCN(CCCC(=O)O)S2(=O)=O [Example 53c, 2H-1,2,4-Benzothiadiazine-2-butanoic acid, 7-(aminosulfonyl)-6-chloro-3,4-dihydro-, 1,1-dioxide]		72 to 78 °C	3.7 ± 0.4	
NS(=O)(=O)c1cc2c(cc1C(F)(F)F)NC(c1cc(CO[N+](=O)[O-])cc(CO[N+](=O)[O-])c1)NS2(=O)=O (centres unmarked) [Example 55, 2H-1,2,4-Benzothiadiazine-7-sulfonamide, 3-[3,5-bis[(nitrooxy)methyl]phenyl]-3,4-dihydro-6-(trifluoromethyl)-, 1,1-dioxide]	3.3 ± 0.4	> 113 °C (dec.)		
NS(=O)(=O)c1cc2c(cc1Cl)NC(CNC(=O)CN(CCO[N+](=O)[O-])CCO[N+](=O)[O-])NS2(=O)=O (centres unmarked) [Example 57c, Acetamide, N-[[7-(aminosulfonyl)-6-chloro-3,4-dihydro-1,1-dioxido-2H-1,2,4-benzothiadiazin-3-yl]methyl]-2-[bis[2-(nitrooxy)ethyl]amino]-]	3.6 ± 0.6	118 °C (dec.)		
NS(=O)(=O)c1cc2c(cc1Cl)NCN(CCCCCCO[N+](=O)[O-])S2(=O)=O [Example 58b, 2H-1,2,4-Benzothiadiazine-7-sulfonamide, 6-chloro-3,4-dihydro-2-[6-(nitrooxy)hexyl]-, 1,1-dioxide]		158 to 160 °C	6.3 ± 0.2	
NS(=O)(=O)c1cc2c(cc1Cl)NCN(CCCO)S2(=O)=O [Example 59, 2H-1,2,4-Benzothiadiazine-7-sulfonamide, 6-chloro-3,4-dihydro-2-(3-hydroxypropyl)-, 1,1-dioxide]		160 °C	6.7 ± 0.6	
CN(CC1Nc2cc(Cl)c(S(N)(=O)=O)cc2S(=O)(=O)N1)C(=O)c1cc(CO[N+](=O)[O-])cc(CO[N+](=O)[O-])c1 (centres unmarked) [Example 65d, (5-{[{[7-(Aminosulfonyl)-6-chloro-1,1-dioxido-3,4-dihydro-2H-1,2,4-benzothiadiazin-3-yl]methyl}(methyl)amino]carbonyl}-1,3-phenylene)bis(methylene)dinitrate]	4.6 ± 0.3	137 °C (dec.)		
NS(=O)(=O)c1cc2c(cc1Cl)NCN(C/C=C/CO[N+](=O)[O-])S2(=O)=O [Example 67b, 2H-1,2,4-Benzothiadiazine-7-sulfonamide, 6-chloro-3,4-dihydro-2-[(2E)-4-(nitrooxy)-2-butenyl]-, 1,1-dioxide]		160 to 162 °C (dec.)	6.7 ± 0.6	
NS(=O)(=O)c1cc2c(cc1Cl)NCN(CCCCOc1cc(CO[N+](=O)[O-])cc(CO[N+](=O)[O-])c1)S2(=O)=O [Example 69b, 2H-1,2,4-Benzothiadiazine-7-sulfonamide, 2-[4-[3,5-bis[(nitrooxy)methyl]phenoxy]butyl]-6-chloro-3,4-dihydro-, 1,1-dioxide]	2.5 ± 0.5	65 to 67 °C		
NS(=O)(=O)c1cc2c(cc1Cl)NCN(CCCOc1cc(CO[N+](=O)[O-])cc(CO[N+](=O)[O-])c1)S2(=O)=O [Example 70c, 2H-1,2,4-Benzothiadiazine-7-sulfonamide, 2-[3-[3,5-bis[(nitrooxy)methyl]phenoxy]propyl]-6-chloro-3,4-dihydro-, 1,1-dioxide]	3.3 ± 0.4	70 to 72 °C		
NS(=O)(=O)c1cc2c(cc1Cl)NCN(CCOc1cc(CO[N+](=O)[O-])cc(CO[N+](=O)[O-])c1)S2(=O)=O [Example 71c, 2H-1,2,4-Benzothiadiazine-7-sulfonamide, 2-[2-[3,5-bis[(nitrooxy)methyl]phenoxy]ethyl]-6-chloro-3,4-dihydro-, 1,1-dioxide]	1.3 ± 0.6	72 to 75 °C		
NS(=O)(=O)c1cc2c(cc1Cl)NCN(CC(=O)N(CCCO[N+](=O)[O-])CCCO[N+](=O)[O-])S2(=O)=O [Example 72b, 2H-1,2,4-Benzothiadiazine-2-acetamide, 7-(aminosulfonyl)-6-chloro-3,4-dihydro-N,N-bis[3-(nitrooxy)propyl]-, 1,1-dioxide]	1.8 ± 0.2	157 to 160 °C		
NS(=O)(=O)c1cc2c(cc1Cl)NCN(CC[C@H](CO[N+](=O)[O-])O[N+](=O)[O-])S2(=O)=O [Example 73b, 2H-1,2,4-Benzothiadiazine-7-sulfonamide, 2-[(3R)-3,4-bis(nitrooxy)butyl]-6-chloro-3,4-dihydro-, 1,1-dioxide]	3.8 ± 0.5	158 to 162 °C		
CC1(C)CC(CC2Nc3cc(Cl)c(S(N)(=O)=O)cc3S(=O)(=O)N2)CC(C)(C)N1O (centres unmarked) [Example 76b, 1-Piperidinyloxy, 4-[[7-(aminosulfonyl)-6-chloro-3,4-dihydro-1,1-dioxido-2H-1,2,4-benzothiadiazin-3-yl]methyl]-2,2,6,6-tetramethyl-]		238 to 240 °C		2.2 ± 0.4
CC1(C)CC(CC2Nc3cc(Cl)c(S(N)(=O)=O)cc3S(=O)(=O)N2)CC(C)(C)N1O (centres unmarked) [Example 77, 2H-1,2,4-Benzothiadiazine-7-sulfonamide, 6-chloro-3,4-dihydro-3-[(1-hydroxy-2,2,6,6-tetramethyl-4-piperidinyl)methyl]-, 1,1-dioxide]		174 to 176 °C		2.3 ± 0.4
NS(=O)(=O)c1cc2c(cc1Cl)NCN(C(CO)CO)S2(=O)=O [Example 78b, 2H-1,2,4-Benzothiadiazine-7-sulfonamide, 6-chloro-3,4-dihydro-2-[2-hydroxy-1-(hydroxymethyl)ethyl]-, 1,1-dioxide]		139 to 143 °C	2.7 ± 0.8	
